From patent publication US11440899B2, “Pyrimidine TBK/IKKe inhibitor compounds and uses thereof” (Merck Patent GmbH, priority 2017, dated 2022)
Where a name gives a salt, the structure may show the parent alone.

Tests used:
TBK1 = TBK1 (Homo sapiens (Human), UniProt Q9UHD2); experiment: TBK Biochemical Assay
Outline: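 Enzyme and substrate with compound (10-point 1:4 series, top 30 uM final, 1% DMSO) incubated 90 min at 25 °C, then stopped; substrate/product separated and read by LabChip mobility-shift, staurosporine 10 uM final as full-inhibition control.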

IKKe = IKKe (Homo sapiens (Human), UniProt Q14164); experiment: IKKe Biochemical Assay
Outline: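 Human IKKε activity was measured with compounds in a 10-point 1:4 dilution series, top concentration 30 uM final, in 1% DMSO final; 10 uM staurosporine served as the control. Enzyme and substrate were incubated 90 min at 25° C, then stopped, and substrate/product peaks were separated by microfluidic mobility-shift on a LabChip EZ Reader II.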

Sequence of IKKe (Q14164 whole entry, species assumed): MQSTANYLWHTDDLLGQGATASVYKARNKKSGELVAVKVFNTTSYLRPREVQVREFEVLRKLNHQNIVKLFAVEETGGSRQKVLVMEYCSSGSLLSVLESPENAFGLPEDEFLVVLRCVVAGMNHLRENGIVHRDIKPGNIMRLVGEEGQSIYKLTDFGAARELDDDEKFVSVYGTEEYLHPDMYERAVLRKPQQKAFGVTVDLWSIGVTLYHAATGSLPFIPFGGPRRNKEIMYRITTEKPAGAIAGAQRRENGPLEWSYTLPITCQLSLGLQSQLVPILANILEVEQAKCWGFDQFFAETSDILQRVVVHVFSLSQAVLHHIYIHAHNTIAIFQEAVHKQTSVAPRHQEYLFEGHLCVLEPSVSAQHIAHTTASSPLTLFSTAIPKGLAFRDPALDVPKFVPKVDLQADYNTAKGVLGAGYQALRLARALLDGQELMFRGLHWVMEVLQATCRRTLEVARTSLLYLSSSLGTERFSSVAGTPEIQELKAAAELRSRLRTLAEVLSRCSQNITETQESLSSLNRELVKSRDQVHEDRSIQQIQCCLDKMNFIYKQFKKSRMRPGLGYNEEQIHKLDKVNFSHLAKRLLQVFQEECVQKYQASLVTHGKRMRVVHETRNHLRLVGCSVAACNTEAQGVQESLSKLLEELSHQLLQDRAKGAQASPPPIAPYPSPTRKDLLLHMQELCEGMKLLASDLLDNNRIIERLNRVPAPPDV
Sequence of TBK1 (Q9UHD2 whole entry, species assumed): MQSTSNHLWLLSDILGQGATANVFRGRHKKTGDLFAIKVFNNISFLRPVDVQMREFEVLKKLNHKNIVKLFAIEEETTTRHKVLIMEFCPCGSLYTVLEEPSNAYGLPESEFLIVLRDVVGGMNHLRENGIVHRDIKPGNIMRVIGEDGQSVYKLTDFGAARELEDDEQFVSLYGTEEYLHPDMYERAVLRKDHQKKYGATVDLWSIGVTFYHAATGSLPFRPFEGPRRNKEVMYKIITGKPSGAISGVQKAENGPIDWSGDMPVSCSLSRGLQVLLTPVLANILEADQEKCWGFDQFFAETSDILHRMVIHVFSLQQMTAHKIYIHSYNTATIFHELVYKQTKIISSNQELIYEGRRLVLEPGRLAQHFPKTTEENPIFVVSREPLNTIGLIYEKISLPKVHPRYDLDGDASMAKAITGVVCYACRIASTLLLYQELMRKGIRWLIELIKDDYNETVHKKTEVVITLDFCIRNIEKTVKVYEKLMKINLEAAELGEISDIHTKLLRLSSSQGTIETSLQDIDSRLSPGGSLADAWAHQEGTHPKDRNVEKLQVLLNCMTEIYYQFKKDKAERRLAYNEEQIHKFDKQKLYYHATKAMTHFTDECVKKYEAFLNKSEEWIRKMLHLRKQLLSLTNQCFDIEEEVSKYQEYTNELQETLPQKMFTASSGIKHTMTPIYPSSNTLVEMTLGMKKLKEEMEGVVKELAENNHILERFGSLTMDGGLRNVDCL

IC50 (TBK1) [nM]	IC50 (IKKe) [nM]	Compound
< 100	< 100	COc1nc(Nc2cc(-c3ccc(OC4CCN(C(=O)[C@@H](C)O)CC4(F)F)c(C#N)c3)ncn2)ccc1N1CCN(C)C[C@H]1C (stereo partly drawn) [Example 66, 2-([3,3-difluoro-1-[(2R)-2-hydroxypropanoyl]piperidin-4-yl]oxy)-5-[6-([5-[(2R)-2,4-dimethylpiperazin-1-yl]-6-methoxypyridin-2-yl]amino)pyrimidin-4-yl]benzonitrile hydrochloride]
< 100	< 100	COc1nc(Nc2cc(-c3ccc(OC4CCNCC4(F)F)c(C#N)c3)ncn2)ccc1N1CCN(C2COC2)C[C@@H]1C (stereo partly drawn) [Example 67, 2-[(3,3-difluoropiperidin-4-yl)oxy]-5-[6-({6-methoxy-5-[(2S)-2-methyl-4-(oxetan-3-yl)piperazin-1-yl]pyridin-2-yl}amino)pyrimidin-4-yl]benzonitrile]
< 100	< 100	COc1nc(Nc2cc(-c3ccc(OC4CCN(C(=O)[C@@H](C)O)CC4(F)F)c(C#N)c3)ncn2)ccc1N1CCN(C2COC2)C[C@@H]1C (stereo partly drawn) [Example 68, 2-([3,3-difluoro-1-[(2R)-2-hydroxypropanoyl]piperidin-4-yl]oxy)-5-[6-([6-methoxy-5-[(2S)-2-methyl-4-(oxetan-3-yl)piperazin-1-yl]pyridin-2-yl]amino)pyrimidin-4-yl]benzonitrile]
< 100	< 100	COc1nc(Nc2cc(-c3ccc(OC4CCNCC4(F)F)c(C#N)c3)ncn2)ccc1N1CCN(C2COC2)C[C@H]1C (stereo partly drawn) [Example 69, 2-[(3,3-difluoropiperidin-4-yl)oxy]-5-[6-({6-methoxy-5-[(2R)-2-methyl-4-(oxetan-3-yl)piperazin-1-yl]pyridin-2-yl}amino)pyrimidin-4-yl]benzonitrile]
< 100	< 100	COc1nc(Nc2cc(-c3ccc(OC4CCN(C(=O)[C@@H](C)O)CC4(F)F)c(C#N)c3)ncn2)ccc1N1CCN(C2COC2)C[C@H]1C (stereo partly drawn) [Example 70, 2-([3,3-difluoro-1-[(2R)-2-hydroxypropanoyl]piperidin-4-yl]oxy)-5-[6-([6-methoxy-5-[(2R)-2-methyl-4-(oxetan-3-yl)piperazin-1-yl]pyridin-2-yl]amino)pyrimidin-4-yl]benzonitrile]
< 100	< 100	COc1nc(Nc2cc(-c3ccc(OC4CCN(C(=O)[C@H](C)O)CC4(F)F)c(C#N)c3)ncn2)ccc1N1CCN(C2COC2)C[C@H]1C (stereo partly drawn) [Example 71, 2-([3,3-difluoro-1-[(2S)-2-hydroxypropanoyl]piperidin-4-yl]oxy)-5-[6-([6-methoxy-5-[(2R)-2-methyl-4-(oxetan-3-yl)piperazin-1-yl]pyridin-2-yl]amino)pyrimidin-4-yl]benzonitrile]
< 100	< 100	COc1nc(Nc2cc(-c3ccc(OC4CCN(C(=O)[C@H](C)O)CC4(F)F)c(C#N)c3)ncn2)ccc1N1CCN(C2COC2)C[C@@H]1C (stereo partly drawn) [Example 72, 2-([3,3-difluoro-1-[(2S)-2-hydroxypropanoyl]piperidin-4-yl]oxy)-5-[6-([6-methoxy-5-[(2S)-2-methyl-4-(oxetan-3-yl)piperazin-1-yl]pyridin-2-yl]amino)pyrimidin-4-yl]benzonitrile]
< 100	< 100	COc1nc(Nc2cc(-c3ccc(OC4CCNCC4(F)F)c(C#N)c3)ncn2)ccc1N1CCN(C)[C@H](C)C1 (stereo partly drawn) [Example 73, 2-[(3,3-difluoropiperidin-4-yl)oxy]-5-[6-({5-[(3R)-3,4-dimethylpiperazin-1-yl]-6-methoxypyridin-2-yl}amino)pyrimidin-4-yl]benzonitrile]
< 100	< 100	COc1nc(Nc2cc(-c3ccc(OC4CCN(C(=O)[C@H](C)O)CC4(F)F)c(C#N)c3)ncn2)ccc1N1CCN(C)[C@H](C)C1 (stereo partly drawn) [Example 74, 2-([3,3-difluoro-1-[(2S)-2-hydroxypropanoyl]piperidin-4-yl]oxy)-5-[6-([5-[(3R)-3,4-dimethylpiperazin-1-yl]-6-methoxypyridin-2-yl]amino)pyrimidin-4-yl]benzonitrile hydrochloride]
< 100	< 100	COc1nc(Nc2cc(-c3ccc(OC4CCN(C(=O)[C@@H](C)O)CC4(F)F)c(C#N)c3)ncn2)ccc1N1CCN(C)[C@H](C)C1 (stereo partly drawn) [Example 75, 2-([3,3-difluoro-1-[(2R)-2-hydroxypropanoyl]piperidin-4-yl]oxy)-5-[6-([5-[(3R)-3,4-dimethylpiperazin-1-yl]-6-methoxypyridin-2-yl]amino)pyrimidin-4-yl]benzonitrile hydrochloride]
< 100	< 100	COc1nc(Nc2cc(-c3ccc(OC4CCNCC4(F)F)c(C#N)c3)ncn2)ccc1N1CCN(C2COC2)CC1 (stereo not shown) [Example 76, 2-[(3,3-difluoropiperidin-4-yl)oxy]-5-[6-({6-methoxy-5-[4-(oxetan-3-yl)piperazin-1-yl]pyridin-2-yl}amino)pyrimidin-4-yl]benzonitrile]
< 100	< 100	COc1nc(Nc2cc(-c3ccc(OC4CCN(C(=O)[C@@H](C)O)CC4(F)F)c(C#N)c3)ncn2)ccc1N1CCN(C2COC2)CC1 (stereo partly drawn) [Example 77, 2-([3,3-difluoro-1-[(2R)-2-hydroxypropanoyl]piperidin-4-yl]oxy)-5-[6-([6-methoxy-5-[4-(oxetan-3-yl)piperazin-1-yl]pyridin-2-yl]amino)pyrimidin-4-yl]benzonitrile]
< 100	< 100	COc1nc(Nc2cc(-c3ccc(OC4CCN(C(=O)[C@H](C)O)CC4(F)F)c(C#N)c3)ncn2)ccc1N1CCN(C2COC2)CC1 (stereo partly drawn) [Example 78, 2-([3,3-difluoro-1-[(2S)-2-hydroxypropanoyl]piperidin-4-yl]oxy)-5-[6-([6-methoxy-5-[4-(oxetan-3-yl)piperazin-1-yl]pyridin-2-yl]amino)pyrimidin-4-yl]benzonitrile]
< 100	< 100	COc1nc(Nc2cc(-c3ccc(O[C@H]4CCN(C(=O)c5cnn[nH]5)C[C@H]4F)c(C#N)c3)ncn2)ccc1N1CCN(C2COC2)CC1 [Example 79, 2-[[(3R,4S)-3-fluoro-1-[(1H-1,2,3-triazol-5-yl)carbonyl]piperidin-4-yl]oxy]-5-[6-([6-methoxy-5-[4-(oxetan-3-yl)piperazin-1-yl]pyridin-2-yl]amino)pyrimidin-4-yl]benzonitrile]
< 100	< 100	COc1nc(Nc2cc(-c3ccc(OC4CCNCC4(F)F)c(C#N)c3)ncn2)ccc1N1CCN(C)[C@@H](C)C1 (stereo partly drawn) [Example 80, 2-[(3,3-difluoropiperidin-4-yl)oxy]-5-[6-({5-[(3S)-3,4-dimethylpiperazin-1-yl]-6-methoxypyridin-2-yl}amino)pyrimidin-4-yl]benzonitrile]
< 100	< 100	COc1nc(Nc2cc(-c3ccc(OC4CCN(C(=O)[C@@H](C)O)CC4(F)F)c(C#N)c3)ncn2)ccc1N1CCN(C)[C@@H](C)C1 (stereo partly drawn) [Example 81, 2-([3,3-difluoro-1-[(2R)-2-hydroxypropanoyl]piperidin-4-yl]oxy)-5-[6-([5-[(3S)-3,4-dimethylpiperazin-1-yl]-6-methoxypyridin-2-yl]amino)pyrimidin-4-yl]benzonitrile]
< 100	< 100	COc1nc(Nc2cc(-c3ccc(OC4CCN(C(=O)[C@H](C)O)CC4(F)F)c(C#N)c3)ncn2)ccc1N1CCN(C)[C@@H](C)C1 (stereo partly drawn) [Example 82, 2-([3,3-difluoro-1-[(2S)-2-hydroxypropanoyl]piperidin-4-yl]oxy)-5-[6-([5-[(3S)-3,4-dimethylpiperazin-1-yl]-6-methoxypyridin-2-yl]amino)pyrimidin-4-yl]benzonitrile]
< 100	< 100	COc1nc(Nc2cc(-c3ccc(OC4CCNCC4(F)F)c(C#N)c3)ncn2)ccc1C1CCN(C2COC2)CC1 (stereo not shown) [Example 83]
< 100	< 100	COc1nc(Nc2cc(-c3ccc(OC4CCN(C(=O)[C@H](C)O)CC4(F)F)c(C#N)c3)ncn2)ccc1C1CCN(C2COC2)CC1 (stereo partly drawn) [Example 84, 2-([3,3-difluoro-1-[(2S)-2-hydroxypropanoyl]piperidin-4-yl]oxy)-5-[6-([6-methoxy-5-[1-(oxetan-3-yl)piperidin-4-yl]pyridin-2-yl]amino)pyrimidin-4-yl]benzonitrile]
< 100	< 100	C[C@H](O)C(=O)N1CCC(Oc2ccc(-c3cc(Nc4ccc(N5CCN(C6COC6)CC5)cc4)ncn3)cc2C#N)C(F)(F)C1 (stereo partly drawn) [Example 85, 2-([3,3-difluoro-1-[(2S)-2-hydroxypropanoyl]piperidin-4-yl]oxy)-5-[6-([4-[4-(oxetan-3-yl)piperazin-1-yl]phenyl]amino)pyrimidin-4-yl]benzonitrile]
< 100	100 to 1000	C[C@@H](O)C(=O)N1CCC(Oc2ccc(-c3cc(Nc4ccc(N5CCN(C6COC6)CC5)cc4)ncn3)cc2C#N)C(F)(F)C1 (stereo partly drawn) [Example 86, 2-([3,3-difluoro-1-[(2R)-2-hydroxypropanoyl]piperidin-4-yl]oxy)-5-[6-([4-[4-(oxetan-3-yl)piperazin-1-yl]phenyl]amino)pyrimidin-4-yl]benzonitrile]
< 100	100 to 1000	COc1nc(Nc2cc(-c3ccc(NC4CCOCC4)c(C#N)c3)ncn2)ccc1C(=O)N(C)C [Example 87, 6-[(6-[3-cyano-4-[(oxan-4-yl)amino]phenyl]pyrimidin-4-yl)amino]-2-methoxy-N,N-dimethylpyridine-3-carboxamide]
< 100	< 100	COc1nc(Nc2cc(-c3ccc(OC4CCOCC4)c(C#N)c3)ncn2)ccc1C(=O)NCCO [Example 88, 6-([6-[3-cyano-4-(oxan-4-yloxy)phenyl]pyrimidin-4-yl]amino)-N-(2-hydroxyethyl)-2-methoxypyridine-3-carboxamide]
